Measurements taken from patent EP4650362A1, “NEUROPROTECTIVE PSD-95 POLYPEPTIDE INHIBITOR AND USE THEREOF” (Beijing Tuo Jie Biopharmaceutical Co. Ltd., priority 2023, dated 2024).
pIC50: −log10 of the molar value. Where two headings read alike, the source gives them in different places. Non-standard residues stand in square brackets, D forms with d. Residues, ends and D or L forms follow the SMILES beside them. No end group written: not given here. Tle = CC(C)(C)[C@H](N)C(=O)O; Dab = NCC[C@H](N)C(=O)O; Aib = CC(C)(N)C(=O)O

Experiments:
[1] = pharmacokinetic study in rats, single intravenous bolus injection; format: in vivo, SD rats; details: for Cmax: read-out: Cmax
Protocol: With male SD rats as test animals, the pharmacokinetic behavior of polypeptide compounds administered via single intravenous bolus injection in rats (plasma) was studied.
Male SD rats weighing 170 to 200 grams and aged 4-6 weeks were purchased from Beijing Vital River Laboratory Animal Technology Co., Ltd. The polypeptide compounds were dissolved in 1× PBS, and the polypeptide compound solutions were then administered via intravenous bolus injection over 10 min at a dose of 3 nmol/g, with three animals per group. At each of the time points of 2 min, 8 min, 15 min, 30 min, 45 min, 60 min, and 120 min after the end of bolus injection, 0.2 mL of blood was collected and transferred to an EDTA-K2 anticoagulation centrifuge tube. The whole blood sample was centrifuged at 4 °C at 4000 g for 5 min, and a plasma sample was obtained by separation and cryopreserved at -80 °C.
The pharmacokinetic parameters of polypeptide compound 22, administered via intravenous bolus injection, in rats were determined using a similar method, with the difference being that an enzyme inhibitor was added immediately after blood collection.
The plasma concentrations of the test compounds were determined using the method in Test Example 3.4.3. Plasma concentration-time curves were plotted, and the pharmacokinetic parameters were calculated using PKSolver software. The experimental results are shown in Table 5-1, Table 5-2, and FIG. 3.

rabbit whole blood = experiment: hemolysis risk test in rabbit whole blood; format: cell-based; details: concentration range of 1 to 50 µM
Protocol: Preparation of red blood cell suspension: 100 µL of fresh whole blood was collected, and 900 µL of 1× PBS solution was then added. The mixture was shaken on a plate shaker at 30 rpm for 5 min and then centrifuged at 1000 g for 5 min, and the supernatant was discarded. The above washing step was repeated until the supernatant no longer appeared red. The suspension was set aside for later use.
Preparation of test polypeptide solutions: An appropriate amount of 1× PBS solution was added to a powdered polypeptide, and the polypeptide was dissolved to form a standard stock solution. The stock solution was then diluted with 1× PBS to form test solutions with concentrations of 1, 3, 10, 30, 100, and 300 µg/mL, and two replicate wells were set for each concentration. Meanwhile, blank 1× PBS was used as a negative control, and a 1× PBS solution containing 0.1% Triton X-100 was used as a positive control.
Incubation: A test solution (500 µL) was added to the red blood cell suspension, and then the mixture was well shaken on a plate shaker at 30 rpm for 5 min, incubated at 37 °C for 1 h, and centrifuged at 1000 g for 5 min.
100 µL of the supernatant was transferred to a single well of a microplate. The absorbance at 540 nm was measured using a SpectraMax M5 microplate reader, and data analysis was performed using GraphPad Prism 9. The hemolysis rate (%) was calculated using the formula: (test sample absorbance - negative control absorbance) / (positive control absorbance - negative control absorbance) × 100%. A rate of less than 5% indicates the absence of hemolysis, while a rate of greater than 5% indicates the presence of hemolysis. Table 3. Testing of the hemolysis risk of the polypeptide compound
A method similar to that in section 3.3.2 was adopted, with the difference being that this test example used fresh rabbit whole blood instead.

human PSD95-PDZ2 = target: T1, human PSD95-PDZ2 (Homo sapiens, UniProt P78352); experiment: competitive ELISA, affinity for human PSD95-PDZ2; format: binding
T1 construct: PDZ2 (155-249, the Flag-His-Avitag-TEVsite tag is italicized); made in house; host or cells: E. coli BL21-DE3 (PET vector)
Text: The objective of this test example was to determine the affinities of polypeptide compounds for human PSD95-PDZ2 using competitive ELISAs.
The amino acid sequence of PDZ2 protein was designed using human PSD95 (Uniprot Entry: P78352) as a template for PDZ: PDZ2 (155-249, the Flag-His-Avitag-TEVsite tag is italicized and was subsequently used for purification and biotinylation): […]
[…] (SEQ ID NO. 62). The PDZ2 gene was constructed onto a PET expression vector, and induced expression was performed using BL21-DE3 E. coli cells under conditions of 37 °C and 1 mM IPTG 4 h. Then centrifugation was performed at 10,000 g at 4 °C for 10 min, and the cell pellets were collected, resuspended in 1× PBS solution, and then lysed using a homogenizer. The lysate was centrifuged at high speed, and the supernatant was collected and filtered through a 0.45 µm membrane. A Ni-Sepharose affinity column was equilibrated with 5 column volumes of a 20 mM phosphate buffer (pH 8.0). The sample was centrifuged at high speed to remove impurities and loaded onto the column for binding. The column was rinsed with the 20 mM phosphate buffer until the A280 reading dropped to the baseline. Gradient elution was then performed with the 20 mM phosphate buffer and 0-500 mM imidazole. A protein was collected, and whether it was the target protein was determined. The purified sample described above was buffer-exchanged into 1× PBS solution, and the resulting solution was concentrated to a volume of 2 mL and further purified using a Superdex200 gel chromatography column (GE) equilibrated with 1× PBS. The target peak was collected and aliquoted for later use.
PSD95-PDZ2 (the tag was removed by TEV enzyme) was diluted with 1× PBS buffer to 1 µg/mL, added to a 96-well microplate (Corning, 9018, 25/box 96-well clear flat bottom plate) at 100 µL/well, and left to stand overnight at 4 °C for 16-20 h. After the liquid was discarded, the plate was washed three times with PBST (pH 7.4, 0.05% Tween-20) buffer, and a 4% BSA blocking solution diluted with PBST buffer was then added (300 µL/well). The plate was blocked by incubation in an incubator at 37 °C for 1 h. After the blocking was complete, the blocking solution was discarded, and the plate was washed three times with PBST buffer. Biotin-NA-1, at a constant concentration of 0.3 µM, and the test compounds, having a starting concentration of 100 µM and serially diluted ten-fold with PBS buffer to seven concentrations (100, 10, 1, 0.1, 0.01, 0.001, 0.0001, and 0 µM), were then added, and the plate was incubated in an incubator at 37 °C for 1 h. After the incubation was complete, the reaction solutions in the microplate were discarded, and the plate was washed three times with PBST. 100 µL of HRP-SA secondary antibody (diluted at 1:2000) was added to each well, and the plate was incubated at 37 °C for 1 h. After the plate was washed three times with PBST, 100 µL of TMB chromogenic substrate was added. The plate was incubated at room temperature for 1-3 min, and 100 µL of 1 M sulfuric acid was added to stop the reaction.
The absorbance at 450 nm was measured using a SpectraMax M5 microplate reader, and non-linear fitting was performed using GraphPad Prism 9 to calculate the binding IC50 values of the test compounds to PSD95-PDZ2 protein.

[2] = male, SD, rat, in vivo, 3 nmol/g, rats, intravenous bolus injection, enzyme inhibitor added immediately after blood collection, n = 3
[3] = male, SD, rat, plasma, 3 nmol/g, rats, intravenous bolus injection, enzyme inhibitor added immediately after blood collection, n = 3
[4] = rats, intravenous bolus injection, enzyme inhibitor added (Table 5-2)
[5] = rats, intravenous bolus injection, enzyme inhibitor added immediately after blood collection, n = 3
[6] = competitive ELISA against 0.3 µM Biotin-NA-1, error of this test within three times, read-out: IC50
[7] = rats, intravenous bolus injection over 10 min, 3 nmol/g, n = 3
[8] = male, SD, rat, plasma, rats, intravenous bolus injection over 10 min, 3 nmol/g, n = 3

## CC(C)[C@H](NC(=O)[C@H](CC(=O)O)NC(=O)[C@@H](NC(=O)[C@@H](NC(=O)[C@@H](NC(=O)[C@@H](NC(=O)[C@H](CCN)NC(=O)C(C)(C)NC(=O)CNC(=O)[C@@H](CCCNC(=N)N)NC(=O)[C@H](CCCNC(=N)N)NC(=O)[C@H](CCCNC(=N)N)NC(=O)[C@H](CCC(N)=O)NC(=O)[C@@H](CCCNC(=N)N)NC(=O)[C@H](CCCNC(=N)N)NC(=O)[C@H](CCCCN)NC(=O)[C@H](CCCCN)NC(=O)[C@H](N)CCCNC(=N)N)[C@@H](C)O)C(C)(C)C)C(C)(C)C)[C@@H](C)O)C(=O)O [Polypeptide compound 22, r-K-K-R-r-Q-R-R-r-G-Aib-Dab-T-Tle-Tle-T-D-V] (H-[dR]KKR[dR]QRR[dR]G[Aib][Dab]T[Tle][Tle]TDV-OH)
[1]; [2]
  AUC(0-inf): 24.3 µg·h/mL
[1]; [3]
  MRT: 106 min
  Tmax: 21.6 min
  Cmax: 16.9 µg/mL
[1]; male, SD, rat, plasma, 3 nmol/g, rats, intravenous bolus injection, enzyme inhibitor added immediately after blood collection, n = 3, read-out: T1/2 (converted)
  half-life: 69.6 min
[1]; [4]
  area under the curve (AUC) increase compared to NA-1: 19.4 fold
  half-life increase compared to NA-1: 29 fold
  maximum plasma concentration (Cmax) increase compared to NA-1: 2.3 fold
[1]; [5]
  AUClast/dose: 2239.6
Rabbit whole blood
  hemolysis rates: less than 5%
Human PSD95-PDZ2; [6]
  pIC50: 6.06

## YGRKKRRQRRRKLSSIESDV [NA-1, YGRKKRRQR RRKLSSIESDV, reference compound]
[1]; [2]
  Tmax: 12 min
[1]; male, SD, rat, in vivo, iv, 3 nmol/g, rats, intravenous bolus injection over 10 min, 3 nmol/g, n = 3
  Cmax: 3.8 µg/mL
[1]; male, SD, rat, in vivo, iv, 3 nmol/g, rats, intravenous bolus injection, enzyme inhibitor added immediately after blood collection, n = 3
  Cmax: 7.25 µg/mL
[1]; male, SD, rat, in vivo, rats, intravenous bolus injection over 10 min, 3 nmol/g, n = 3, read-out: T1/2 (converted)
  half-life: 2.4 min
[1]; [7]
  AUC(0-t): 0.309 µg·h/mL
  AUC(inf): 0.315 µg·h/mL
  AUClast/dose: 41
  MRTO-inf: 3.6 min
[1]; rats, intravenous bolus injection, 3 nmol/g (Table 5-1)
  half-lives: less than 3 min
[1]; [5]
  AUC(inf): 1.248 µg·h/mL
  AUClast/dose: 184.0
  MRTO-inf: 13.2 min
  T1/2: 2.4 min
Rabbit whole blood
  hemolysis rates: less than 5%
Human PSD95-PDZ2
  pIC50: 6.04

## CC[C@H](C)[C@H](NC(=O)[C@H](CO)NC(=O)[C@H](CO)NC(=O)[C@H](CC(C)C)NC(=O)[C@@H](CCCCN)NC(=O)[C@H](CCCNC(=N)N)NC(=O)[C@H](CCCNC(=N)N)NC(=O)[C@@H](CCCNC(=N)N)NC(=O)[C@H](CCC(N)=O)NC(=O)[C@@H](CCCNC(=N)N)NC(=O)[C@H](CCCNC(=N)N)NC(=O)[C@H](CCCCN)NC(=O)[C@H](CCCCN)NC(=O)[C@@H](CCCNC(=N)N)NC(=O)CNC(=O)[C@@H](N)Cc1ccc(O)cc1)C(=O)N[C@@H](CCC(=O)O)C(=O)N[C@@H](CO)C(=O)N[C@@H](CC(=O)O)C(=O)N[C@H](C(=O)O)C(C)C [NoNO42, YGrKKRrQrRRkLSSIESDV, reference compound] (H-YG[dR]KKR[dR]Q[dR]RR[dK]LSSIESDV-OH)
[1]; male, SD, rat, in vivo, iv
  half-life: 2.4 min
[1]; rat, in vivo, iv
  AUClast/dose: 25
  half-lives: less than 3 min
Rabbit whole blood
  hemolysis rates: less than 5%
Human PSD95-PDZ2
  pIC50: 6.04

## CC(C)[C@H](NC(=O)[C@H](CC(=O)O)NC(=O)[C@@H](NC(=O)[C@@H](NC(=O)[C@@H](NC(=O)[C@@H](NC(=O)[C@H](CCN)NC(=O)C(C)(C)NC(=O)CNC(=O)[C@@H](CCCNC(=N)N)NC(=O)[C@@H](CCCNC(=N)N)NC(=O)[C@@H](CCCNC(=N)N)NC(=O)[C@@H](CCC(N)=O)NC(=O)[C@@H](CCCNC(=N)N)NC(=O)[C@@H](CCCNC(=N)N)NC(=O)[C@@H](CCCCN)NC(=O)[C@@H](CCCCN)NC(=O)[C@@H](CCCNC(=N)N)NC(=O)CNC(=O)[C@H](N)Cc1ccc(O)cc1)[C@@H](C)O)C(C)(C)C)C(C)(C)C)[C@@H](C)O)C(=O)O [Polypeptide compound 14, y-G-r-k-k-r-r-q-r-r-r-G-Aib-Dab-T-Tle-Tle-T-D-V] (H-[dY]G[dR][dK][dK][dR][dR][dQ][dR][dR][dR]G[Aib][Dab]T[Tle][Tle]TDV-OH)
[1]; [8]
  AUC(0-inf): 9.9 µg·h/mL
  MRT: 71.4 min
  Cmax: 15.1 µg/mL
[1]; male, SD, rat, plasma, rats, intravenous bolus injection over 10 min, 3 nmol/g, n = 3, read-out: AUC(0-t)
  AUC(0-t): 7.91 µg·h/mL
[1]; male, SD, rat, plasma, rats, intravenous bolus injection over 10 min, 3 nmol/g, n = 3, read-out: T1/2 (converted)
  half-life: 56.4 min
[1]; [7]
  AUClast/dose: 1041
Rabbit whole blood
  hemolysis rates: less than 5%
Human PSD95-PDZ2; [6]
  pIC50: 6.15
